# Measurements reported in ChEMBL document CHEMBL1134249, “The identification and characterization of hydrazinyl urea-based antibacterial agents through combinatorial chemistry” (Bioorg Med Chem Lett, 2001).
# pIC50: −log10 of the molar value.
# Key:
# [1] = system: Staphylococcus aureus; assay: Inhibitory concentration required against cell wall synthesis in Staphylococcus aureus (MI246); type: functional, organism-based
# [2] = Solubility at pH 7.4; type: physicochemical; conditions: buffer
# [3] = system: Bacteria; assay: Minimum inhibitory concentration required against six gram-positive organisms (G+6); type: functional
pIC50 [1],solubility [2] [µg/mL],MIC [3] [µM],SMILES
4.33,2,4,O=C(NNc1nccc(C(F)(F)F)n1)Nc1cc(C(F)(F)F)cc(C(F)(F)F)c1
3.87,5,68,O=C(Nc1cc(C(F)(F)F)cc(C(F)(F)F)c1)NN1CCOCC1
3.63,53,198,O=C(Nc1cc(C(F)(F)F)cc(C(F)(F)F)c1)Nn1cnnc1
4.77,< 0.5,3,O=C(NNC(=O)Nc1cc(C(F)(F)F)cc(C(F)(F)F)c1)Nc1cc(C(F)(F)F)cc(C(F)(F)F)c1
3.84,–,2,O=C(NNC(=O)Nc1cc(C(F)(F)F)cc(C(F)(F)F)c1)Nc1ccc(C(F)(F)F)cc1
3.78,–,> 300,O=C(Nc1cc(C(F)(F)F)cc(C(F)(F)F)c1)NN1CCN(CCO)CC1
4.36,6,10,CC(C)c1nc2ccccc2c(=O)n1NC(=O)Nc1ccc(C(F)(F)F)cc1
4.44,59,7,CCc1nc2ccccc2c(=O)n1NC(=O)Nc1cc(C(F)(F)F)cc(C(F)(F)F)c1
4.18,3,1.5,CC(C)c1nc2ccccc2c(=O)n1NC(=O)Nc1cc(C(F)(F)F)cc(C(F)(F)F)c1

SMILES,pIC50 [1],solubility [2] [µg/mL],MIC [3] [µM]
CN[C@H](CC(C)C)C(=O)N[C@H]1C(=O)N[C@@H](CC(N)=O)C(=O)N[C@H]2C(=O)N[C@H]3C(=O)N[C@H](C(=O)N[C@H](C(=O)O)c4cc(O)cc(O)c4-c4cc3ccc4O)[C@H](O)c3ccc(c(Cl)c3)Oc3cc2cc(c3O[C@@H]2O[C@H](CO)[C@@H](O)[C@H](O)[C@H]2O[C@H]2C[C@](C)(N)[C@H](O)[C@H](C)O2)Oc2ccc(cc2Cl)[C@H]1O [VANCOMYCIN],6.40,–,0.3
